In ChEMBL document CHEMBL1146161, “Synthesis and anti-HIV properties of new hydroxyquinoline-polyamine conjugates on cells infected by HIV-1 LAV and HIV-1 BaL viral strains” (Bioorg Med Chem Lett, 2006) one finds Activity, CC50 and EC50 data, which are given here for eleven molecules.

A word on the CC50: it is the concentration giving 50% cytotoxicity. What is called EC50 is the concentration at which the effect is half-maximal. A low value points to higher potency in that assay.

Each structure is given as a SMILES string. Calls of active or inactive are those of the source. No cut-off for these calls is given here.

The subject of data set [1] is Human immunodeficiency virus 1. Briefly: Antiviral activity against HIV1 LAV in PBMC. The format is functional, organism-based. The conditions noted are these: for EC50: Human immunodeficiency virus 1, LAV.
In data set [2] the test system is Human immunodeficiency virus 1. In words: Antiviral activity against HIV1 BaL in PBMC. The settings on record: for EC50: Human immunodeficiency virus 1, BaL. The format is functional, organism-based.
The nature of data set [3]: Cytotoxicity against PBMC. The format is cell-based. The conditions noted are these: human.

With `Oc1ccc(CNCCCNCc2ccc(O)c3ncccc23)c2cccnc12`, the result in data set [1] and in data set [2] was inactive. Further, the CC50 in data set [3] was greater than 10 µM.

Take `Oc1ccc(CN2CCN(Cc3ccc(O)c4ncccc34)CC2)c2cccnc12`: the outcome in data set [1] and in data set [2] was inactive. The CC50 in data set [3] was greater than 10 µM.

Molecule `Oc1ccc(CN2CCCN(Cc3ccc(O)c4ncccc34)CCNCCCNCC2)c2cccnc12` registered a concentration for a half-maximal effect (EC50) in data set [1] of 4.1 µM. The Activity entry in data set [2] is “Toxic”. Moreover, it took 8 µM to reach half-maximal cytotoxicity in data set [3] (CC50).

In data set [1], `c1cc(CN2CCCNCCNCCCNCC2)cc(CN2CCCNCCNCCCNCC2)c1` registered an EC50 of 0.05 µM. In addition, in data set [2], the outcome was inactive. The CC50 in data set [3] is greater than 10 µM.

In the case of `Oc1ccc(CNCc2ccc(CNCc3ccc(O)c4ncccc34)cc2)c2cccnc12`, the result in data set [1] and in data set [2] was inactive. In data set [3], this molecule returned a cytotoxic concentration (CC50) greater than 10 µM.

Turning to `Oc1ccc(CN2CCCNCCN(Cc3ccc(CN4CCCNCCNCCCNCC4)cc3)CCCNCC2)c2cccnc12`, the EC50 in data set [1] amounted to 0.7 µM; in data set [2], 3.5 µM. The molecule further had a CC50 in data set [3] greater than 10 µM.

As to `Oc1ccc(CN2CCCNCCNCCCNCC2)c2cccnc12`, the EC50 in data set [1] is 4.1 µM; in data set [2], 4.35 µM. Also, the CC50 in data set [3] is greater than 10 µM.

For `Oc1ccc(CCl)c2cccnc12`, in data set [1], the EC50 was determined as 5.1 µM. Besides, the outcome in data set [2] was inactive. Also, in data set [3], the 50% cytotoxic concentration (CC50) was greater than 10 µM.

For `Oc1c(I)cc(Cl)c2cccnc12` [CLIOQUINOL], the outcome in data set [1] and in data set [2] was inactive. Further, in data set [3], it took 2 µM to reach half-maximal cytotoxicity (CC50).

Take `Oc1ccc(CN2CCCNCCCNCCNCCC2)c2cccnc12`: the EC50 in data set [1] is 1.5 µM; in data set [2] it was 1.25 µM. Further, the CC50 in data set [3] was greater than 10 µM.

The molecule `c1cc(CN2CCCNCCNCCCNCC2)ccc1CN1CCCNCCNCCCNCC1` [PLERIXAFOR] returned an EC50 in data set [1] of 0.47 µM. Besides, the outcome in data set [2] was inactive. For the same molecule, the CC50 in data set [3] is greater than 10 µM.
